Measurements published in patent US10421715B2, “Pleuromutilin derivative having 2-amino phenyl mercaptan side chain as well as preparation method and application thereof” (SOUTH CHINA AGRICULTURAL UNIVERSITY, priority 2016, dated 2019).
Values after ≈ are worked out from the molar mass of the structure shown. Like-named read-outs stand apart in the source and are kept apart here.

Columns and labels:
Assay in all cases: In-vitro bacteriostatic experiment, two-fold agar dilution MIC
Format in all cases: cell-based
[1] = test system: mycoplasma gallisepticum S6; settings: for MIC: Mycoplasmoides gallisepticum, read-out: MIC S6
Procedure: (§1) Minimum inhibitory concentrations (MIC) of a series of compounds obtained in the disclosure were measured by using a two-fold agar dilution method. An experimental control drug selected valnemulin, and valnemulin belongs to pleuromutilin antibiotics and is the most widely applied veterinary antibiotic in the pleuromutilin antibiotics at present. By using a multi-point inoculator, bacteria solution was inoculated into a culture dish containing drugs having different concentrations at a bacteria inoculating amount of 10^6 CFU/ml. A result was observed after incubation for 24 hours at 37° C., and the concentration of a compound in a culture dish without bacteria served as the minimum inhibitory concentration (MIC) of this compound.
(§2) Strains used in the experiment were E. Coli ATCC25922, Staphylococcus aureus ATCC29213, methicillin-resistant staphylococcus ATCC43300 and mycoplasma gallisepticum S6.
(§3) 25.6 mg of synthesized target compound was precisely weighed to be placed in 10 mL of volumetric flask and dissolved with a small amount of N,N-dimethylformamide and then a volume was metered with N,N-dimethylformamide to 10 mL, so as to prepare 2560 μg/mL stock solution. In addition, 25.6 mg of pleuromutilin, tiamulin, valnemulin and retapamulin were respectively and precisely weighed to be placed in 10 ml of volumetric flask, and a volume was metered with N,N-dimethylformamide to 10 mL, so as to prepare 2560 μg/mL control stock solution.
(§4) The control stock solution was diluted in a culture dish with a doubling dilution method, each culture dish contained 1 ml of medicine liquid, the medicine liquid is diluted to 20 ml with molten MH agar, so that final concentrations of subject compounds in a series of culture dishes were respectively 64, 32, 16, 8, 4, 2, 1, 0.5, 0.25, 0.125 and 0.0625 μg/ml.

E. Coli ATCC25922 = settings: for MIC: Escherichia coli, read-out: MIC E. coli ATCC25922
Procedure: as §1, §2, §3, §4

[2] = test system: methicillin-resistant staphylococcus ATCC43300; settings: for MIC: read-out: MIC MRSA ATCC43300
Procedure: as §1, §2, §3, §4

[3] = test system: Staphylococcus aureus ATCC29213; settings: for MIC: Staphylococcus aureus, read-out: MIC S. aureus ATCC29213
Procedure: as §1, §2, §3, §4

[4] = mycoplasma gallisepticum S6, agar dilution, 10^6 CFU/ml, 24 hours at 37° C.
[5] = agar dilution, 10^6 CFU/ml, 24 hours at 37° C.
[6] = ATCC25922, agar dilution, 10^6 CFU/ml, 24 hours at 37° C.
[7] = ATCC29213, agar dilution, 10^6 CFU/ml, 24 hours at 37° C.

Structure (SMILES) | MIC S6 [1, 4] | MIC E. coli ATCC25922 (E. Coli ATCC25922; [5]) | MIC MRSA ATCC43300 [2, 5] | MIC S. aureus ATCC29213 [3, 5] | also measured
C=C[C@]1(C)C[C@@H](OC(=O)CSc2ccccc2NC(=O)c2ccccc2C)[C@]2(C)[C@H](C)CC[C@]3(CCC(=O)[C@H]32)[C@@H](C)[C@@H]1O [Compound 1] | 0.125 µg/mL (≈ 0.207 µM) | >64 µg/mL | 0.25 µg/mL (≈ 0.414 µM) | 0.25 µg/mL (≈ 0.414 µM) | 
C=CC1(C)CC(OC(=O)CSc2ccccc2NC(=O)c2cccc(C)c2)C2(C)C(C)CCC3(CCC(=O)C32)C(C)C1O (centres unmarked) [Compound 2, 22-O-[2-(3-methylbenzamnido)phenyl] thioacetyl valnemulin] | 0.25 µg/mL (≈ 0.414 µM) | >64 µg/mL | 0.5 µg/mL (≈ 0.828 µM) | 1 µg/mL (≈ 1.66 µM) | 
C=CC1(C)CC(OC(=O)CSc2ccccc2NC(=O)c2ccc(C)cc2)C2(C)C(C)CCC3(CCC(=O)C32)C(C)C1O (centres unmarked) [Compound 3, 22-O-[2-(4-methylbenzamido)phenyl] thioacetyl valnemulin] | 0.25 µg/mL (≈ 0.414 µM) | >64 µg/mL | 0.5 µg/mL (≈ 0.828 µM) | 0.5 µg/mL (≈ 0.828 µM) | 
C=CC1(C)CC(OC(=O)CSc2ccccc2NC(=O)c2ccccc2F)C2(C)C(C)CCC3(CCC(=O)C32)C(C)C1O (centres unmarked) [Compound 4] | 0.25 µg/mL (≈ 0.411 µM) | >64 µg/mL | 0.5 µg/mL (≈ 0.823 µM) | 0.5 µg/mL (≈ 0.823 µM) | 
C=CC1(C)CC(OC(=O)CSc2ccccc2NC(=O)c2cccc(F)c2)C2(C)C(C)CCC3(CCC(=O)C32)C(C)C1O (centres unmarked) [Compound 5, 22-O-[2-(3-fluorobenzamido)phenyl] thioacetyl valnemulin] | 0.125 µg/mL (≈ 0.206 µM) | >64 µg/mL | 0.125 µg/mL (≈ 0.206 µM) | 0.125 µg/mL (≈ 0.206 µM) | 
C=CC1(C)CC(OC(=O)CSc2ccccc2NC(=O)c2ccc(F)cc2)C2(C)C(C)CCC3(CCC(=O)C32)C(C)C1O (centres unmarked) [Compound 6, 22-O-[2-(4-fluorobenzamido)phenyl] thioacetyl valnemulin] | 0.5 µg/mL (≈ 0.823 µM) | >64 µg/mL | 1 µg/mL (≈ 1.65 µM) | 1 µg/mL (≈ 1.65 µM) | 
C=C[C@]1(C)C[C@@H](OC(=O)CSc2ccccc2NC(=O)c2ccccc2Cl)[C@]2(C)[C@H](C)CC[C@]3(CCC(=O)[C@H]32)[C@@H](C)[C@@H]1O [Compound 7] | 0.25 µg/mL (≈ 0.4 µM) | >64 µg/mL | 0.5 µg/mL (≈ 0.801 µM) | 0.5 µg/mL (≈ 0.801 µM) | 
C=CC1(C)CC(OC(=O)CSc2ccccc2NC(=O)c2cccc(Cl)c2)C2(C)C(C)CCC3(CCC(=O)C32)C(C)C1O (centres unmarked) [Compound 8, 22-O-[2-(3-chlorobenzamido)phenyl] thioacetyl valnemulin] | 0.125 µg/mL (≈ 0.2 µM) | >64 µg/mL | 0.25 µg/mL (≈ 0.4 µM) | 0.25 µg/mL (≈ 0.4 µM) | 
C=C[C@]1(C)C[C@@H](OC(=O)CSc2ccccc2NC(=O)c2ccc(Cl)cc2)[C@]2(C)[C@H](C)CC[C@]3(CCC(=O)[C@H]32)[C@@H](C)[C@@H]1O [Compound 9] | 0.25 µg/mL (≈ 0.4 µM) | >64 µg/mL | 0.5 µg/mL (≈ 0.801 µM) | 0.5 µg/mL (≈ 0.801 µM) | 
C=CC1(C)CC(OC(=O)CSc2ccccc2NC(=O)c2ccccc2OC)C2(C)C(C)CCC3(CCC(=O)C32)C(C)C1O (centres unmarked) [Compound 10, 22-O-[2-(2-methoxybenzamido)phenyl] thioacetyl valnemulin] | 0.25 µg/mL (≈ 0.403 µM) | >64 µg/mL | 0.5 µg/mL (≈ 0.807 µM) | 1 µg/mL (≈ 1.61 µM) | 
C=CC1(C)CC(OC(=O)CSc2ccccc2NC(=O)c2cccc(OC)c2)C2(C)C(C)CCC3(CCC(=O)C32)C(C)C1O (centres unmarked) [Compound 11, 22-O-[2-(3-methoxybenzamido)phenyl] thioacetyl valnemulin] | 0.25 µg/mL (≈ 0.403 µM) | >64 µg/mL | 1 µg/mL (≈ 1.61 µM) | 1 µg/mL (≈ 1.61 µM) | 
C=C[C@]1(C)C[C@@H](OC(=O)CSc2ccccc2NC(=O)c2ccc(OC)cc2)[C@]2(C)[C@H](C)CC[C@]3(CCC(=O)[C@H]32)[C@@H](C)[C@@H]1O [Compound 12] | 0.5 µg/mL (≈ 0.807 µM) | >64 µg/mL | 1 µg/mL (≈ 1.61 µM) | 1 µg/mL (≈ 1.61 µM) | 
C=C[C@]1(C)C[C@@H](OC(=O)CSc2ccccc2N)[C@]2(C)[C@H](C)CC[C@]3(CCC(=O)[C@H]32)[C@@H](C)[C@@H]1O [Compound 13] |  |  |  |  | MIC [1, 4]: 0.0156 µg/mL (≈ 0.0321 µM); MIC (E. Coli ATCC25922; [6]): > 64 µg/mL; MIC [2, 5]: 0.0156 µg/mL (≈ 0.0321 µM); antibacterial activity on methicillin-resistant staphylococcus (in words) ([2]; comparison with control drugs): obviously superior to that of valnemulin and retapamulin; MIC [3, 7]: 0.0156 µg/mL (≈ 0.0321 µM); antibacterial activity on staphylococcus (in words) ([3]; comparison with control drugs): obviously superior to that of valnemulin and retapamulin
C=C[C@]1(C)C[C@@H](OC(=O)CO)[C@]2(C)[C@H](C)CC[C@]3(CCC(=O)[C@H]32)[C@@H](C)[C@@H]1O [Pleuromutilin] |  |  |  |  | MIC [1, 4]: 0.0625 µg/mL (≈ 0.165 µM); MIC (E. Coli ATCC25922; [6]): > 64 µg/mL; MIC [2, 5]: 0.5 µg/mL (≈ 1.32 µM); MIC [3, 7]: 1 µg/mL (≈ 2.64 µM)
C=C[C@]1(C)C[C@@H](OC(=O)CS[C@@H]2C[C@H]3CC[C@@H](C2)N3C)[C@]2(C)[C@H](C)CC[C@]3(CCC(=O)[C@H]32)[C@@H](C)[C@@H]1O [Retapamulin, reference compound] |  |  |  |  | MIC ([2]; 24 h): 0.0625 µg/mL (≈ 0.121 µM); MIC ([3]; ATCC29213, 24 h): 0.0625 µg/mL (≈ 0.121 µM)
C=C[C@]1(C)C[C@@H](OC(=O)CSCCN(CC)CC)[C@]2(C)[C@H](C)CC[C@]3(CCC(=O)[C@H]32)[C@@H](C)[C@@H]1O [Tiamulin, reference compound] |  |  |  |  | MIC [1, 4]: 0.0156 µg/mL (≈ 0.0316 µM); MIC (E. Coli ATCC25922; [6]): > 64 µg/mL; MIC [2, 5]: 0.5 µg/mL (≈ 1.01 µM); MIC [3, 7]: 0.5 µg/mL (≈ 1.01 µM)
C=C[C@]1(C)C[C@@H](OC(=O)CSC(C)(C)CNC(=O)[C@H](N)C(C)C)[C@]2(C)[C@H](C)CC[C@]3(CCC(=O)[C@H]32)[C@@H](C)[C@@H]1O [Valnemulin, reference compound] |  |  |  |  | MIC ([1]; S6, 24 h): 0.0039 µg/mL (≈ 0.0069 µM); MIC (E. Coli ATCC25922; ATCC25922, 24 h): 32 µg/mL (≈ 56.7 µM); MIC ([2]; 24 h): 0.0625 µg/mL (≈ 0.111 µM); MIC ([3]; ATCC29213, 24 h): 0.0625 µg/mL (≈ 0.111 µM)
